According to patent US20070203025A1, “Defoliant” (priority 2006, published 2007):

How the values were obtained:
[1] = system: Cotton plants of the cultivar "Carmen"; experiment: Leaf drop effect (defoliation) on cotton plants after spray application; assay type: in vivo; details: dose 35 g of a.i./ha, 1 l/ha Actirob B added, scale 0-100%
Experimental: (§1) A water application rate of 300 l/ha was initially charged. The components herbicide and adjuvant were then added with stirring at the application rates and in the manner stated in table 1, such that a homogeneous spray liquor was formed. Here, the active ingredients were employed as suspension concentrates. The adjuvant used was ®Actirob B (Novance).
(§2) Cotton seeds of the cultivar “Carmen” were sown at a depth of 1 cm and cultivated in a climatized chamber (16 h of light, temperature during the day: 26° C., at night: 20° C.) until they had reached the 8-10 leaf stage.
The plants were treated on a laboratory spray track with spray liquors of thidiazuron and thidiazuron with combination partners. The water application rate for the spray application was 300 l/ha. […]
2 weeks after the application, the leaf drop effect was evaluated according to a scale from 0 to 100%: • 0% =no noticeable effect compared to untreated plants • 100% =all leaves have dropped.
One week after the application, the leaf drop effect was evaluated according to a scale from 0 to 100%: • 0% =no noticeable effect compared to untreated plants • 100% =all leaves have dropped.
One week after the application, the leaf drop effect was evaluated according to a scale from 0 to 100%: • 0%=no noticeable effect compared to untreated plants • 100%=all leaves have dropped.

[2] = system: Cotton plants of the cultivar "Carmen"; experiment: Regrowth of cotton plants, by weighing the newly formed leaf material; assay type: in vivo; details: dose 35 g of a.i./ha, 1 l/ha Actirob B added, weight of newly formed leaf material
Experimental: as §1, §2
The plants were treated on a laboratory spray track with spray liquors of thidiazuron and thidiazuron with combination partners. The water application rate for the spray application was 300 l/ha. After the treatment, the plants were returned to the climatized chamber.
4 weeks after the application, the regrowth of the plants was assessed by weighing the newly formed leaf material.

O=C(Nc1ccccc1)Nc1cnns1 [TDZ, thidiazuron]
Leaf drop [%] 2 weeks after application ([1]; Table 1, 100% = all leaves have dropped): 35%
Leaf drop [%] 2 weeks after application ([1]; Table 3): 91%
Regrowth [g] 4 weeks after application ([2]; Table 1): 3.3 g
Regrowth [g] 4 weeks after application ([2]; Table 3): 2.4 g
